This passage reports Emax and EC50 results from patent US20230265151A1, “GIP/GLP1 CO-AGONIST COMPOUNDS” (priority 2020, published 2023).

Like-named read-outs stand apart in the source and are kept apart here. *1 amine or outer side, *2 acyl side, *3 side chain or, on linkers, in order; H or OH if unused. Where a SMILES comes first, the peptide text is derived from it. Side-chain parts run from the residue outwards. [ ]: non-standard residue; d: D form. The star is where a group is joined. αMePhe(2-F) = C[C@](N)(Cc1ccccc1F)C(=O)O; γGlu = O=C(O)[C@H](CCC(=O)[*:2])N[*:1]; C14 diacid = O=C(O)CCCCCCCCCCCCC(=O)*; αMeY = C[C@](N)(Cc1ccc(O)cc1)C(=O)O; 4Pal = N[C@@H](Cc1ccncc1)C(=O)O; αMeL = CC(C)C[C@](C)(N)C(=O)O; Orn = NCCC[C@H](N)C(=O)O; AEEA = NCCOCCOCC(=O)O; Aib = CC(C)(N)C(=O)O

Common to all, as to type: cell-based
Assay [1] deals with hGLP-1R (Homo sapiens, UniProt P43220). The assay is described as follows: Functional cAMP formation (HTRF) in HEK-293 clonal cells expressing hGLP-1R, 0.1% bovine casein, without or with 1.0% human serum albumin. Details: expressed in transfected cells. Conditions: for Emax: read-out: hGLP-1R Emax, % ± SEM; for EC50: read-out: hGLP-1R EC50, nM (SEM, n). A digest of the protocol: (§1)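 Cells were stimulated with peptide for 30 min at 37° C, then intracellular cAMP was measured by competitive HTRF (665/620 nm ratio) and converted to nM using a cAMP standard curve. Relative EC50 and Emax came from four-parameter logistic fits of percent maximal response against peptide concentration.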
(Cyclic AMP is a second messenger, typically raised through Gs and lowered through Gi signalling.)

The target of assay [2] is T1, hGCGR (Homo sapiens, UniProt P47871).
T1 construct: expressed in transfected cells
The assay is described as follows: Functional cAMP formation (HTRF) in HEK-293 clonal cells expressing hGCGR, 0.1% bovine casein, without or with 1.0% human serum albumin. Conditions: read-out: hGCGR EC50, nM (SEM, n). A digest of the protocol: as §1

Assay [3] deals with T2, hGIPR (Homo sapiens, UniProt P48546).
T2 construct: expressed in transfected cells
T2 sequence (P48546 22-466): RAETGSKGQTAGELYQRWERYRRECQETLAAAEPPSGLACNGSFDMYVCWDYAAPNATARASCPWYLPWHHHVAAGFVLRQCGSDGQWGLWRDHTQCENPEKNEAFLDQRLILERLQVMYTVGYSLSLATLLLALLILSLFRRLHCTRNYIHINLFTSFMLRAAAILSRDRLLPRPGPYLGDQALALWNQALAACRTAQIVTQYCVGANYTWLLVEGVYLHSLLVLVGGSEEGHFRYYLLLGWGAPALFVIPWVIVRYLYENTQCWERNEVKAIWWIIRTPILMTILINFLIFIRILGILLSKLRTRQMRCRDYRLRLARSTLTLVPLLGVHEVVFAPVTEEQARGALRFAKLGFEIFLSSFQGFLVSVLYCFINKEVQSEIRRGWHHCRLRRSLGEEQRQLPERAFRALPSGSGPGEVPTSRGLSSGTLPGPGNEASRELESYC
The assay is described as follows: Functional cAMP formation (HTRF) in HEK-293 clonal cells expressing hGIPR, 0.1% bovine casein, without or with 1.0% human serum albumin. Conditions: for Emax: read-out: hGIPR Emax, % ± SEM; for EC50: geometric mean, read-out: hGIPR EC50, nM (SEM, n). A digest of the protocol:
as §1

The mark [4] stands for this setting: cAMP, 37° C., 0.1% bovine casein (no human serum albumin), geometric mean.
[5] abbreviates: cAMP, 37° C., 0.1% bovine casein and 1.0% human serum albumin, geometric mean (SEM, n).
Where [6] appears, read: 0.1% bovine casein and 1.0% human serum albumin, 37° C., geometric mean.
Setting [7] is: HEK293, percent of maximal response to GLP-1(7-36)NH2, 37° C., 0.1% bovine casein, arithmetic mean.
[8] abbreviates: cAMP, incubated at 37° C., 0.1% bovine casein (no human serum albumin), geometric mean.
[9] abbreviates: 0.1% bovine casein and 1.0% human serum albumin, 37° C.
Setting [10] is: HEK293, 0.1% bovine casein and 1.0% human serum albumin, 37° C., percent of maximal response to GIP(1-42)NH2.
The mark [11] stands for this setting: HEK293, percent of maximal response to GIP(1-42)NH2, 37° C., 0.1% bovine casein, arithmetic mean.
The mark [12] stands for this setting: cAMP, incubated at 37° C., 0.1% bovine casein (no human serum albumin).
[13] abbreviates: HEK293, 0.1% bovine casein and 1.0% human serum albumin, 37° C., percent of maximal response to GLP-1(7-36)NH2.

Chain of hGLP-1R (P43220 24-463): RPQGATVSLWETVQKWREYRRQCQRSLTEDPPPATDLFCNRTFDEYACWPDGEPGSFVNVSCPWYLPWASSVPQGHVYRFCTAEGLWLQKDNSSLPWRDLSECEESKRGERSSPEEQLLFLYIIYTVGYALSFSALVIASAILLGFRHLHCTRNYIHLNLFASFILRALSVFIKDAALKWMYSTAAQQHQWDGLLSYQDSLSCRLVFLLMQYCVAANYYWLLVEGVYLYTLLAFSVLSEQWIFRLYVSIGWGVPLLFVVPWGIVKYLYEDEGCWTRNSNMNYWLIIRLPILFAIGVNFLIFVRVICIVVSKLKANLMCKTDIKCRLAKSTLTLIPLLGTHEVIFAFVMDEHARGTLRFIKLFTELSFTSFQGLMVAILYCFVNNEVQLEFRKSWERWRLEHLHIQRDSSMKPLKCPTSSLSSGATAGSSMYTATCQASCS
T1 sequence (P47871 26-477): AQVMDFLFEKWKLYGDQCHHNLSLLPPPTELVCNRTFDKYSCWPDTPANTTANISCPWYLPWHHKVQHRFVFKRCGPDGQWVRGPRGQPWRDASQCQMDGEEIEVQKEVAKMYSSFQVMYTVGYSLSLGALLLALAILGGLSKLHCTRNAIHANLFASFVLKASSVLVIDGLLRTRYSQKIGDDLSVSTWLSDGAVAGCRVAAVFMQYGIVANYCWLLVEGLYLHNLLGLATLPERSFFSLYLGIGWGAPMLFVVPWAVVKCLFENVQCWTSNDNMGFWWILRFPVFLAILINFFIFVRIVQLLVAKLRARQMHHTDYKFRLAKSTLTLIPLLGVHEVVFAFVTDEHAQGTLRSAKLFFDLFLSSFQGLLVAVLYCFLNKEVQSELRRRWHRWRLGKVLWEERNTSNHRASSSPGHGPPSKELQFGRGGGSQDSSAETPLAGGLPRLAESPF

For `CC[C@H](C)[C@H](NC(=O)[C@H](CC(C)C)NC(=O)[C@](C)(Cc1ccc(O)cc1)NC(=O)[C@@H](CCC(=O)O)NC(=O)[C@@H](NC(=O)[C@H](Cc1ccccc1)NC(=O)[C@H](CCC(=O)O)NC(=O)C(C)(C)NC(=O)[C@H](CCC(N)=O)NC(=O)[C@H](C)NC(=O)[C@H](CCCCNC(=O)COCCOCCNC(=O)COCCOCCNC(=O)CCCCCCCCCCCCC(=O)O)NC(=O)[C@H](CCCN)NC(=O)[C@H](CC(=O)O)NC(=O)[C@H](CC(C)C)NC(=O)[C@](C)(CC(C)C)NC(=O)[C@@H](NC(=O)C(C)(C)NC(=O)[C@H](Cc1ccc(O)cc1)NC(=O)[C@H](CC(=O)O)NC(=O)[C@H](CO)NC(=O)[C@@H](NC(=O)[C@](C)(Cc1ccccc1F)NC(=O)[C@@H](NC(=O)CNC(=O)[C@H](CCC(=O)O)NC(=O)C(C)(C)NC(=O)[C@@H](N)Cc1ccc(O)cc1)[C@@H](C)O)[C@@H](C)O)[C@@H](C)CC)[C@@H](C)CC)C(=O)N[C@@H](CCCCNC(=O)COCCOCCNC(=O)COCCOCCNC(=O)CCCCCCCCCCCCC(=O)O)C(=O)NCC(=O)NCC(=O)N1CCC[C@H]1C(=O)N[C@@H](CO)C(=O)N[C@@H](CO)C(=O)NCC(=O)N[C@@H](C)C(=O)N1CCC[C@H]1C(=O)N1CCC[C@H]1C(=O)N1CCC[C@H]1C(=O)N[C@@H](CO)C(N)=O` [Example 388], the maximum response (Emax) in assay [1] (HEK293, cAMP, 37° C., 0.1% bovine casein, percent of maximal response to GLP-1(7-36)NH2, arithmetic mean) is 95.4%; in assay [3] (HEK293, cAMP, 37° C., 0.1% bovine casein and 1.0% human serum albumin, percent of maximal response to GIP(1-42)NH2), 82.1%; in assay [3] (HEK293, cAMP, 37° C., 0.1% bovine casein, percent of maximal response to GIP(1-42)NH2, arithmetic mean) it was 98.3%. Further, the half-maximal effective concentration (EC50) in assay [1] (setting [4]) is 0.292 nM; in assay [1] (setting [5]) it was 6.31 nM; in assay [2] (setting [4]), greater than 9950 nM; in assay [2] (setting [5]) it was greater than 9950 nM; in assay [3] (cAMP, 37° C., 0.1% bovine casein (no human serum albumin)), 0.0103 nM.
Turning to `CC[C@H](C)[C@H](NC(=O)[C@H](CC(C)C)NC(=O)[C@](C)(Cc1ccc(O)cc1)NC(=O)[C@@H](CCC(=O)O)NC(=O)[C@@H](NC(=O)[C@H](Cc1ccccc1)NC(=O)[C@H](CCC(=O)O)NC(=O)C(C)(C)NC(=O)[C@H](CCC(N)=O)NC(=O)[C@H](C)NC(=O)[C@H](CCCCNC(=O)COCCOCCNC(=O)COCCOCCNC(=O)CC[C@H](NC(=O)CCCCCCCCCCCCC(=O)O)C(=O)O)NC(=O)[C@H](CCCN)NC(=O)[C@H](CC(=O)O)NC(=O)[C@H](CC(C)C)NC(=O)[C@](C)(CC(C)C)NC(=O)[C@@H](NC(=O)[C@H](CO)NC(=O)[C@H](Cc1ccncc1)NC(=O)[C@H](CC(=O)O)NC(=O)[C@H](CO)NC(=O)[C@@H](NC(=O)[C@](C)(Cc1ccccc1F)NC(=O)[C@@H](NC(=O)CNC(=O)[C@H](CCC(=O)O)NC(=O)C(C)(C)NC(=O)[C@@H](N)Cc1ccc(O)cc1)[C@@H](C)O)[C@@H](C)O)[C@@H](C)CC)[C@@H](C)CC)C(=O)N[C@@H](CCC(=O)O)C(=O)NCC(=O)NCC(=O)N[C@@H](CCCCNC(=O)COCCOCCNC(=O)COCCOCCNC(=O)CC[C@H](NC(=O)CCCCCCCCCCCCC(=O)O)C(=O)O)C(=O)N[C@@H](CO)C(=O)N[C@@H](CO)C(=O)NCC(=O)N[C@@H](CCCN)C(=O)N1CCC[C@H]1C(=O)N1CCC[C@H]1C(=O)N1CCC[C@H]1C(=O)N[C@@H](CCCN)C(N)=O` [Example 155] (H-Y[Aib]EGT[αMePhe(2-F)]TSD[4Pal]SI[αMeL]LD[Orn]K([AEEA-AEEA-γGlu-C14 diacid])AQ[Aib]EFI[dE][αMeY]LIEGGK([AEEA-AEEA-γGlu-C14 diacid])SSG[Orn]PPP[Orn]-NH2; N-terminus assumed), the EC50 in assay [1] (setting [6]) is 34.6 nM; in assay [1] (setting [8]) it was 0.912 nM; in assay [2] (setting [6]) it was greater than 9950 nM; in assay [2] (setting [8]) it was greater than 9950 nM; in assay [3] (setting [9]), 1.25 nM; in assay [3] (setting [12]), 0.0309 nM. The maximal response (Emax) in assay [1] (setting [7]) stood at 99 ± 5.16%; in assay [3] (setting [10]) it was 96.5 ± 1.04%; in assay [3] (setting [11]), 96.6 ± 7.55%.
`CC[C@H](C)[C@H](NC(=O)[C@H](CCCN)NC(=O)[C@H](CC(=O)O)NC(=O)[C@H](CC(C)C)NC(=O)[C@](C)(CC(C)C)NC(=O)[C@@H](NC(=O)C(C)(C)NC(=O)[C@H](Cc1ccncc1)NC(=O)[C@H](CC(=O)O)NC(=O)[C@H](CO)NC(=O)[C@@H](NC(=O)[C@](C)(Cc1ccccc1F)NC(=O)[C@@H](NC(=O)CNC(=O)[C@H](CCC(=O)O)NC(=O)C(C)(C)NC(=O)[C@@H](N)Cc1ccc(O)cc1)[C@@H](C)O)[C@@H](C)O)[C@@H](C)CC)C(=O)N[C@@H](C)C(=O)N[C@@H](CCC(N)=O)C(=O)NC(C)(C)C(=O)N[C@@H](CCCCNC(=O)COCCOCCNC(=O)COCCOCCNC(=O)CC[C@H](NC(=O)CCCCCCCCCCCCC(=O)O)C(=O)O)C(=O)N[C@@H](Cc1ccccc1)C(=O)N[C@H](C(=O)N[C@H](CCC(=O)O)C(=O)N[C@@](C)(Cc1ccc(O)cc1)C(=O)N[C@@H](CC(C)C)C(=O)N[C@H](C(=O)N[C@@H](CCCCNC(=O)COCCOCCNC(=O)COCCOCCNC(=O)CC[C@H](NC(=O)CCCCCCCCCCCCC(=O)O)C(=O)O)C(=O)NCC(=O)NCC(=O)N1CCC[C@H]1C(=O)N[C@@H](CO)C(=O)N[C@@H](CO)C(=O)NCC(=O)N[C@@H](C)C(=O)N1CCC[C@H]1C(=O)N1CCC[C@H]1C(=O)N1CCC[C@H]1C(=O)N[C@@H](CO)C(N)=O)[C@@H](C)CC)[C@@H](C)CC` [Example 220]: the EC50 is 150 nM in assay [1] (setting [6]); 0.535 nM in assay [1] (setting [8]); greater than 9950 nM in assay [2] (setting [6]); greater than 9950 nM in assay [2] (setting [8]); 11.6 nM in assay [3] (setting [9]); 0.0237 nM in assay [3] (setting [12]). Moreover, the maximum response (Emax) was determined as 110% in assay [1] (setting [13]), 87.6% in assay [1] (setting [7]), 83.5% in assay [3] (setting [10]) and 91.6% in assay [3] (setting [11]).
As to `CC[C@H](C)[C@H](NC(=O)[C@H](CC(C)C)NC(=O)[C@](C)(Cc1ccc(O)cc1)NC(=O)[C@@H](CCC(=O)O)NC(=O)[C@@H](NC(=O)[C@H](Cc1ccccc1)NC(=O)[C@H](CCC(=O)O)NC(=O)C(C)(C)NC(=O)[C@H](CCC(N)=O)NC(=O)[C@H](C)NC(=O)[C@H](CCCCNC(=O)COCCOCCNC(=O)COCCOCCNC(=O)CC[C@H](NC(=O)CCCCCCCCCCCCC(=O)O)C(=O)O)NC(=O)[C@H](CCCN)NC(=O)[C@H](CC(=O)O)NC(=O)[C@H](CC(C)C)NC(=O)[C@](C)(CC(C)C)NC(=O)[C@@H](NC(=O)[C@H](CO)NC(=O)[C@H](Cc1cccc2ccccc12)NC(=O)[C@H](CC(=O)O)NC(=O)[C@H](CO)NC(=O)[C@@H](NC(=O)[C@](C)(Cc1ccccc1F)NC(=O)[C@@H](NC(=O)CNC(=O)[C@H](CCC(=O)O)NC(=O)C(C)(C)NC(=O)[C@@H](N)Cc1ccc(O)cc1)[C@@H](C)O)[C@@H](C)O)[C@@H](C)CC)[C@@H](C)CC)C(=O)N[C@@H](CCC(=O)O)C(=O)NCC(=O)NCC(=O)N[C@@H](CCCCNC(=O)COCCOCCNC(=O)COCCOCCNC(=O)CC[C@H](NC(=O)CCCCCCCCCCCCC(=O)O)C(=O)O)C(=O)N[C@@H](CO)C(=O)N[C@@H](CO)C(=O)NCC(=O)N[C@@H](C)C(=O)N1CCC[C@H]1C(=O)N1CCC[C@H]1C(=O)N1CCC[C@H]1C(=O)N[C@@H](CO)C(N)=O` [Example 56], the Emax in assay [1] (setting [13]) is 123 ± 6.57%; in assay [3] (setting [10]) it was 91.4 ± 1.04%; in assay [3] (setting [11]), 90.3 ± 2.57%. The results for the EC50 in assay [2] (setting [6]), in assay [2] (setting [8]) and in assay [3] (setting [12]) were greater than 9950 nM, greater than 9950 nM and 0.0138 nM, respectively.

By Emax is commonly meant the maximal effect, on the per cent scale that the assay sets. By EC50 is commonly meant the concentration that produces a half-maximal response.
